Key:
Test in all cases: Bliss excess, mean over the matrix (fraction); higher = more synergy
BT-20 (Breast Carcinoma) = test system: BT-20 (Breast Carcinoma)
Method in brief: (§1)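 After 24 hours at 37°C and 5% CO2 in 1536-well plates, cells in DMEM/F12 or RPMI plus 10% FBS received two-drug dose matrices for 72 hours. Viability came from CellTiter-Glo 2.0 luminescence and was scaled as inhibition, anchored at 0 by vehicle wells and at 1 by blank wells. Combination Emax is taken as the second-highest inhibition in the matrix, and Bliss excess as the observed combination effect less EA + EB − EA·EB, with EA and EB the single-agent effects.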

[1] = test system: DG-75 (Burkitt's Lymphoma)
Method in brief: as §1

[2] = test system: EBC-1 (Squamous Cell Lung Carcinoma)
Method in brief: as §1

[3] = test system: EMC-BAC-2 (Non-Small Cell Lung Carcinoma)
Method in brief: as §1

EW-13 (Ewing's Sarcoma) = test system: EW-13 (Ewing's Sarcoma)
Method in brief: as §1

EW-18 (Ewing's Sarcoma) = test system: EW-18 (Ewing's Sarcoma)
Method in brief: as §1

EW-3 (Ewing's Sarcoma) = test system: EW-3 (Ewing's Sarcoma)
Method in brief: as §1

GOTO (Neuroblastoma) = test system: GOTO (Neuroblastoma)
Method in brief: as §1

[4] = test system: H-EMC-SS (Chondrosarcoma)
Method in brief: as §1

[5] = test system: HuP-T3 (Pancreatic Carcinoma)
Method in brief: as §1

[6] = test system: KYSE-50 (Esophageal Squamous Cell Carcinoma)
Method in brief: as §1

[7] = test system: LC4-1 (B-Lymphoblastic Leukemia)
Method in brief: as §1

[8] = test system: LOU-NH91 (Squamous Cell Lung Carcinoma)
Method in brief: as §1

NB7 (Neuroblastoma) = test system: NB7 (Neuroblastoma)
Method in brief: as §1

[9] = test system: NCI-H513 (Other Solid Carcinomas)
Method in brief: as §1

[10] = test system: OCUB-M (Breast Carcinoma)
Method in brief: as §1

[11] = test system: OCUM-1 (Gastric Carcinoma)
Method in brief: as §1

[12] = test system: OVISE (Ovarian Carcinoma)
Method in brief: as §1

[13] = test system: PF-382 (T-Lymphoblastic Leukemia)
Method in brief: as §1

[14] = test system: PFSK-1 (Other Solid Carcinomas)
Method in brief: as §1

SMILES | Bliss excess (BT-20 (Breast Carcinoma)) | Bliss excess [1] | Bliss excess [2] | Bliss excess [3] | Bliss excess (EW-13 (Ewing's Sarcoma)) | Bliss excess (EW-18 (Ewing's Sarcoma)) | Bliss excess (EW-3 (Ewing's Sarcoma)) | Bliss excess (GOTO (Neuroblastoma)) | Bliss excess [4] | Bliss excess [5] | Bliss excess [6] | Bliss excess [7] | Bliss excess [8] | Bliss excess (NB7 (Neuroblastoma)) | Bliss excess [9] | Bliss excess [10] | Bliss excess [11] | Bliss excess [12] | Bliss excess [13] | Bliss excess [14]
NC1(C(=O)N[C@@H](CCO)c2ccc(Cl)cc2)CCN(c2ncnc3[nH]ccc23)CC1 [Capivasertib] + C[C@@H]1COCCN1C2=NC(=NC(=C2)C3(CC3)[S@](=N)(=O)C)C4=C5C=CNC5=NC=C4 [AZD6738] (first compound max 10 µM, 7x7, partner max 10 µM) | -0.0442 | -0.0138 | -0.0315 | 0.0152 | 0.0091 | -0.0504 | -0.0457 | -0.0379 | -0.0022 | -0.036 | -0.0673 | 0.0099 | -0.0192 | -0.0518 | -0.0601 | -0.0241 | -0.0088 | -0.0459 | -0.0059 | -0.0956
Cc1nc(Nc2ncc(C(=O)Nc3c(C)cccc3Cl)s2)cc(N2CCN(CCO)CC2)n1 [Dasatinib] + CC(=O)Nc1cccc(-n2c(=O)n(C3CC3)c(=O)c3c(Nc4ccc(I)cc4F)n(C)c(=O)c(C)c32)c1 [Trametinib] (first compound max 2 µM, 7x7, partner max 1 µM) | -0.0878 | 0.0387 | 0.0399 | -0.0795 | -0.0443 | -0.086 | -0.0576 | -0.0631 | 0.0331 | 0.0459 | 0.043 | -0.0543 | -0.0403 | 0.0262 | 0.0273 | -0.0384 | 0.0155 | 0.0504 | 0.198 | -0.095
CN(CCO)CC[C@H](CSc1ccccc1)Nc1ccc(S(=O)(=O)NC(=O)c2ccc(N3CCC([C@@H](O)c4ccccc4-c4ccc(Cl)cc4)CC3)cc2)cc1S(=O)(=O)C(F)(F)F [AZD4320] + Cc1cc2ncnn2cc1Nc1ncc2c(n1)n(C1CCOCC1)c(=O)n2C [AZD7648] (first compound max 1 µM, 7x7, partner max 10 µM) | 0.0391 | 0.0021 | -0.0396 | -0.0482 | -0.0223 | -0.0372 | 0.015 | 0.075 | -0.0218 | -0.0362 | -0.0198 | 0.0066 | -0.012 | -0.0286 | -0.0438 | 0.0104 | -0.0462 | -0.0033 | 0.0269 | 0.0756
Cc1c2c(nn1C)CSCc1cc(n(C)n1)CSc1cc(c3ccccc3c1)OCCCc1c(C(=O)O)n(C)c3c-2c(Cl)ccc13 [AZD5991] + Cc1cc2ncnn2cc1Nc1ncc2c(n1)n(C1CCOCC1)c(=O)n2C [AZD7648] (first compound max 1 µM, 7x7, partner max 10 µM) | -0.0139 | 0.0116 | -0.0127 | -0.0141 | 0.014 | -0.0254 | -0.0626 | -0.02 | 0.0025 | -0.0677 | -0.0461 | 0.0017 | -0.0307 | -0.0079 | -0.0127 | -0.0448 | -0.0093 | -0.043 | 0.038 | -0.0199
CC1(C)CCC(CN2CCN(c3ccc(C(=O)NS(=O)(=O)c4ccc(NCC5CCOCC5)c([N+](=O)[O-])c4)c(Oc4cnc5[nH]ccc5c4)c3)CC2)=C(c2ccc(Cl)cc2)C1 [Venetoclax] + CN(C)CCCOc1ccc(-c2ccc3ncc4c(c3c2)n(C2CCOCC2)c(=O)n4C)cn1 [AZD0156] (first compound max 1 µM, 7x7, partner max 1 µM) | -0.0163 | -0.0123 | 0.0095 | -0.0593 | -0.0351 | 0.0697 | 0.032 | -0.0194 | -0.0387 | -0.0925 | -0.0399 | 0.056 | -0.0307 | 0.0104 | -0.0142 | 0.0289 | -0.0257 | -0.01 | 0.0446 | 0.068
CC1(C)CCC(CN2CCN(c3ccc(C(=O)NS(=O)(=O)c4ccc(NCC5CCOCC5)c([N+](=O)[O-])c4)c(Oc4cnc5[nH]ccc5c4)c3)CC2)=C(c2ccc(Cl)cc2)C1 [Venetoclax] + C[C@@H]1COCCN1C2=NC(=NC(=C2)C3(CC3)[S@](=N)(=O)C)C4=C5C=CNC5=NC=C4 [AZD6738] (first compound max 1 µM, 7x7, partner max 10 µM) | -0.0511 | -0.0021 | -0.0731 | -0.0196 | 0.0008 | -0.0293 | 0.0185 | -0.039 | -0.0416 | -0.0201 | -0.0492 | 0.0467 | -0.0023 | -0.0342 | -0.0111 | -0.0107 | -0.0242 | -0.0658 | 0.0366 | 0.0119
CN(CCO)CC[C@H](CSc1ccccc1)Nc1ccc(S(=O)(=O)NC(=O)c2ccc(N3CCC([C@@H](O)c4ccccc4-c4ccc(Cl)cc4)CC3)cc2)cc1S(=O)(=O)C(F)(F)F [AZD4320] + Cn1cnc2c(F)c(Nc3ccc(Br)cc3Cl)c(C(=O)NOCCO)cc21 [Selumetinib] (first compound max 1 µM, 7x7, partner max 3 µM) | 0.0937 | -0.0512 | 0.0478 | 0.0022 | -0.0149 | 0.0109 | -0.0118 | 0.13 | -0.0378 | -0.0166 | 0.0405 | 0.0831 | 0.0027 | 0.0397 | 0.0445 | 0.0206 | 0.0319 | 0.024 | 0.0409 | 0.057

From the supplement of paper PMC11061612
